These molecules were tested against USP14 (Homo sapiens (Human), UniProt P54578) (assay: USP14 Inhibition Assay). Conditions: average value from a minimum of two experimental determinations, read-out: IC50 Category.
Type: biochemical
Procedure: Example 17: USP14 Inhibition Assay
“I” in the Table below designates an IC50 of >5 μM, “II” in the Table below designates and IC50 between 0.5 and 5 μM, and “III” designates an IC50<0.5 μM. The IC50 values in the Table below represent the average value from a minimum of two experimental determinations.

Sequence of USP14 (P54578 whole entry, looked up): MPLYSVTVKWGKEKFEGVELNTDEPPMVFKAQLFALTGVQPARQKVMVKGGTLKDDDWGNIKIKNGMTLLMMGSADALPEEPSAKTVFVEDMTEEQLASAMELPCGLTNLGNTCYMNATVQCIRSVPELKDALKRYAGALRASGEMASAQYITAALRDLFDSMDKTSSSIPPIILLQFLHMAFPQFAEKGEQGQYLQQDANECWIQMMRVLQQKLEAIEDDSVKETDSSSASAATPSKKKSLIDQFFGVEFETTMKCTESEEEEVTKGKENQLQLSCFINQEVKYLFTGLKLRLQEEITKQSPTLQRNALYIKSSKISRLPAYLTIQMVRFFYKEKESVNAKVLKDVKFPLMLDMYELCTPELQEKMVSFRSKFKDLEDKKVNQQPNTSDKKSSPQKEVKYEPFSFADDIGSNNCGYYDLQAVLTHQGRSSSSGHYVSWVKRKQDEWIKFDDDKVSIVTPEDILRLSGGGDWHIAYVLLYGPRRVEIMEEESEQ

Row | Molecule | IC50
1 | 4-(2-Methyl-3-(2-(piperidin-1-yl)acetyl)-1H-indol-1-yl)benzonitrile [Compound 160] | < 500 nM
2 | O=C(CN1CCC(O)CC1)c1cn(-c2ccc(Cl)cc2)c2ccccc12 [Compound 30] | > 5000 nM
3 | O=C(CN1CCCCC1)c1cn(-c2ccc(Cl)cc2)c2ccccc12 [Compound 31] | > 5000 nM
4 | O=C(CN1CCCC1)c1cn(-c2ccc(Cl)cc2)c2ccccc12 [Compound 34] | > 5000 nM
5 | Cc1c(C(=O)CN2CCC(O)CC2)c2ccccc2n1-c1ccc(Cl)cc1 [Compound 86] | < 500 nM
6 | Cc1c(C(=O)CN2CCCCC2)c2ccccc2n1-c1ccc(Cl)cc1 [Compound 87] | < 500 nM
7 | Cc1c(C(=O)CN2CCCC2)c2ccccc2n1-c1ccc(Cl)cc1 [Compound 88] | < 500 nM
8 | Cc1c(C(=O)CN2CCCCC2)c2cc(F)ccc2n1-c1ccc(Cl)cc1 [Compound 98] | < 500 nM
9 | Cc1c(C(O)CN2CCCCC2)c2ccccc2n1-c1ccc(Cl)cc1 (centres unmarked) [Compound 106, 1-(1-(4-Chlorophenyl)-2-methyl-1H-indol-3-yl)-2-(piperidin-1-yl)ethan-1-ol] | > 5000 nM
10 | Cc1c(C(=O)CN2CCCCC2)c2ccccc2n1-c1ccc(C(N)=O)cc1 [Compound 108] | > 5000 nM
11 | O=C(CN1CCCCC1)c1cn(-c2ccc(Cl)cc2)c2cc(CO)ccc12 [Compound 115, 1-(1-(4-Chlorophenyl)-6-(hydroxymethyl)-1H-indol-3-yl)-2-(piperidin-1-yl)ethan-1-one] | > 5000 nM
12 | Cc1c(C(=O)CC2CCCCC2)c2ncccc2n1-c1ccc(C#N)cc1 [Compound 116] | > 5000 nM
13 | CC(=O)OCc1ccc2c(C(=O)CN3CCCCC3)cn(-c3ccc(Cl)cc3)c2c1 [Compound 118, (1-(4-Chlorophenyl)-3-(2-(piperidin-1-yl)acetyl)-1H-indol-6-yl)methyl Acetate] | > 5000 nM
14 | CNCc1ccc2c(C(=O)CN3CCCCC3)cn(-c3ccc(Cl)cc3)c2c1 [Compound 119, 1-(1-(4-Chlorophenyl)-6-((methylamino)methyl)-1H-indol-3-yl)-2-(piperidin-1-yl)ethan-1-one] | > 5000 nM
15 | O=C(CN1CCCCC1)c1cn(-c2ccc(Cl)cc2)c2cc(O)ccc12 [Compound 120] | > 5000 nM
16 | COC(=O)c1ccc2c(C(O)CN3CCCCC3)c(C)n(-c3ccc(Cl)cc3)c2c1 (centres unmarked) [Compound 126, Methyl 1-(4-Chlorophenyl)-3-(1-hydroxy-2-(piperidin-1-yl)ethyl)-2-methyl-1H-indole-6-carboxylate] | > 5000 nM
17 | Cc1c(C(=O)CN2CCCCC2)c2nc(O)ccc2n1-c1ccc(C#N)cc1 [Compound 127, 4-(5-Hydroxy-2-methyl-3-(2-(piperidin-1-yl)acetyl)-1H-pyrrolo[3,2-b]pyridin-1-yl)benzonitrile] | > 5000 nM
18 | Cc1[nH]c2cccnc2c1C(=O)CN1CCCCC1 [Compound 128, 1-(2-Methyl-1H-pyrrolo[3,2-b]pyridin-3-yl)-2-(piperidin-1-yl)ethan-1-one] | > 5000 nM
19 | Cc1c(C(O)CN2CCCCC2)c2ccc(CO)cc2n1-c1ccc(Cl)cc1 (centres unmarked) [Compound 130, 1-(1-(4-Chlorophenyl)-6-(hydroxymethyl)-2-methyl-1H-indol-3-yl)-2-(piperidin-1-yl)ethan-1-ol] | > 5000 nM

Row | Molecule | IC50
20 | O=C(CN1CCCCC1)c1c(O)n(-c2ccc(Cl)cc2)c2ccccc12 [Compound 131, 1-(1-(4-Chlorophenyl)-2-hydroxy-1H-indol-3-yl)-2-(piperidin-1-yl)ethan-1-one] | > 5000 nM
21 | COc1c(C(=O)CN2CCCCC2)c2ccccc2n1-c1ccc(Cl)cc1 [Compound 132, 1-(1-(4-Chlorophenyl)-2-methoxy-1H-indol-3-yl)-2-(piperidin-1-yl)ethan-1-one] | > 5000 nM
22 | CCOC(=O)CCc1ccc2c(C(=O)CN3CCCCC3)c(C)n(-c3ccc(C#N)cc3)c2c1 [Compound 133, Ethyl 3-(1-(4-Cyanophenyl)-2-methyl-3-(2-(piperidin-1-yl)acetyl)-1H-indol-6-yl)propanoate] | < 500 nM
23 | Cc1c(C(=O)CN2CCCCC2)c2cccnc2n1-c1ccc(C#N)cc1 [Compound 141, 4-(2-Methyl-3-(2-(piperidin-1-yl)acetyl)-1H-pyrrolo[2,3-b]pyridin-1-yl)benzonitrile] | 500 to 5000 nM
24 | Cc1c(C(=O)CN2CCC(NC(=O)OC(C)(C)C)CC2)c2ccccc2n1-c1ccc(Cl)cc1 [Compound 142] | 500 to 5000 nM
25 | Cc1c(C(=O)CN2CCCCC2)c2ccncc2n1-c1ccc(C#N)cc1 [Compound 144, 4-(2-Methyl-3-(2-(piperidin-1-yl)acetyl)-1H-pyrrolo[2,3-c]pyridin-1-yl)benzonitrile] | 500 to 5000 nM
26 | Cc1c(C(=O)CN2CCCCC2)c2cc(Oc3ccccc3)ccc2n1-c1ccc(Cl)cc1 [Compound 145] | 500 to 5000 nM
27 | COc1cccc2c(C(=O)CN3CCCCC3)c(C)n(-c3ccc(C#N)cc3)c12 [Compound 146] | 500 to 5000 nM
28 | Cc1c(C(=O)CN2CCC(NC(=O)c3ccc(N=[N+]=[N-])cc3)CC2)c2ccccc2n1-c1ccc(Cl)cc1 [Compound 147] | 500 to 5000 nM
29 | Cc1c(C(=O)CN2CCCCC2)c2ccc(O)cc2n1-c1ccc(Cl)cc1 [Compound 148, 1-(1-(4-Chlorophenyl)-6-hydroxy-2-methyl-1H-indol-3-yl)-2-(piperidin-1-yl)ethan-1-one] | 500 to 5000 nM
30 | Cc1c(C(=O)CN2CCCCC2)c2ncccc2n1-c1ccc(Cl)nc1 [Compound 149] | 500 to 5000 nM
31 | Cc1c(C(=O)CN2CCCCC2)c2cc([N+](=O)[O-])ccc2n1-c1ccc(Cl)cc1 [Compound 150] | 500 to 5000 nM
32 | Cc1c(C(=O)CN2CCCCC2)c2cnccc2n1-c1ccc(C#N)cc1 [Compound 151, 4-(2-Methyl-3-(2-(piperidin-1-yl)acetyl)-1H-pyrrolo[3,2-c]pyridin-1-yl)benzonitrile] | 500 to 5000 nM
33 | Cc1c(C(=O)CN2CCCCC2)c2ccc(CN3C(=O)c4ccccc4C3=O)cc2n1-c1ccc(Cl)cc1 [Compound 152, 2-((1-(4-Chlorophenyl)-2-methyl-3-(2-(piperidin-1-yl)acetyl)-1H-indol-6-yl)methyl)isoindoline-1,3-dione] | 500 to 5000 nM
34 | Cc1c(C(=O)CN2CCCCC2)c2ccc(CO[Si](C)(C)C(C)(C)C)cc2n1-c1ccc(Cl)cc1 [Compound 153, 1-(6-(((tert-Butyldimethylsilyl)oxy)methyl)-1-(4-chlorophenyl)-2-methyl-1H-indol-3-yl)-2-(piperidin-1-yl)ethan-1-one] | 500 to 5000 nM
35 | COc1ccc2c(c1)c(C(=O)CN1CCCCC1)c(C)n2-c1ccc(Cl)cc1 [Compound 155] | < 500 nM
36 | Cc1ccc2c(c1)c(C(=O)CN1CCCCC1)c(C)n2-c1ccc(Cl)cc1 [Compound 156] | < 500 nM
37 | Cc1c(C(=O)CN2CCCCC2)c2ncccc2n1-c1ccc(Cl)cc1 [Compound 161] | < 500 nM
38 | Cc1c(C(=O)CN2CCCCC2)c2ncccc2n1-c1ccc(C#N)cc1 [Compound 162, 4-(2-Methyl-3-(2-(piperidin-1-yl)acetyl)-1H-pyrrolo[3,2-b]pyridin-1-yl)benzonitrile] | < 500 nM

Row | Molecule | IC50
39 | Cc1c(C(=O)CN2CCCCC2)c2cc(C#N)ccc2n1-c1ccc(C#N)cc1 [Compound 163] | < 500 nM
40 | Cc1c(C(=O)CN2CCCCC2)c2ccccc2n1-c1ccc([N+](=O)[O-])cc1 [Compound 164] | < 500 nM
41 | Cc1c(C(=O)CN2CCCCC2)c2nc(F)ccc2n1-c1ccc(C#N)cc1 [Compound 165] | < 500 nM
42 | COc1cccc2c1c(C(=O)CN1CCCCC1)c(C)n2-c1ccc(C#N)cc1 [Compound 167] | < 500 nM
43 | Cc1c(C(=O)CN2CCCCC2)c2c(F)cccc2n1-c1ccc(C#N)cc1 [Compound 168] | < 500 nM
44 | Cc1ccc2c(C(=O)CN3CCCCC3)c(C)n(-c3ccc(C#N)cc3)c2c1 [Compound 169, 4-(2,6-Dimethyl-3-(2-(piperidin-1-yl)acetyl)-1H-indol-1-yl)benzonitrile] | < 500 nM
45 | Cc1c(C(=O)CN2CCCCC2)c2cccc(F)c2n1-c1ccc(C#N)cc1 [Compound 170] | < 500 nM
46 | COC(=O)c1ccc2c(C(=O)CN3CCCCC3)c(C)n(-c3ccc(Cl)cc3)c2c1 [Compound 171] | < 500 nM
47 | CC(=O)Oc1ccc2c(C(=O)CN3CCCCC3)c(C)n(-c3ccc(Cl)cc3)c2c1 [Compound 172, 1-(4-Chlorophenyl)-2-methyl-3-(2-(piperidin-1-yl)acetyl)-1H-indol-6-yl Acetate] | < 500 nM
48 | Cc1c(C(=O)CN2CCCCC2)c2nc(F)ccc2n1-c1ccc(Cl)cc1 [Compound 173] | < 500 nM
49 | Cc1c(C(=O)CN2CCCCC2)c2ccc(C#N)cc2n1-c1ccc(C#N)cc1 [Compound 175] | < 500 nM
50 | Cc1c(C(=O)CN2CCCCC2)c2ccc(F)cc2n1-c1ccc(C#N)cc1 [Compound 176] | < 500 nM
51 | COc1ccc2c(n1)c(C(=O)CN1CCCCC1)c(C)n2-c1ccc(C#N)cc1 [Compound 177, 4-(5-Methoxy-2-methyl-3-(2-(piperidin-1-yl)acetyl)-1H-pyrrolo[3,2-b]pyridin-1-yl)benzonitrile] | < 500 nM
52 | COc1ccc2c(C(=O)CN3CCCCC3)c(C)n(-c3ccc(Cl)cc3)c2c1 [Compound 178] | < 500 nM
53 | Cc1c(C(=O)CN2CCCCC2)c2ccc(OCC(N)=O)cc2n1-c1ccc(Cl)cc1 [Compound 179, 2-((1-(4-Chlorophenyl)-2-methyl-3-(2-(piperidin-1-yl)acetyl)-1H-indol-6-yl)oxy)acetamide] | < 500 nM
54 | Cc1c(C(=O)CN2CCCCC2)c2ccc(C(C)C)cc2n1-c1ccc(C#N)cc1 [Compound 180, 4-(6-Isopropyl-2-methyl-3-(2-(piperidin-1-yl)acetyl)-1H-indol-1-yl)benzonitrile] | < 500 nM
55 | Cc1c(C(=O)CN2CCCCC2)c2ncccc2n1-c1ccc(C#N)nc1 [Compound 181, 5-(2-Methyl-3-(2-(piperidin-1-yl)acetyl)-1H-pyrrolo[3,2-b]pyridin-1-yl)picolinonitrile] | < 500 nM
56 | Cc1c(C(=O)CN2CCCCC2)c2ccc(CO)cc2n1-c1ccc(Cl)cc1 [Compound 182, 1-(1-(4-Chlorophenyl)-6-(hydroxymethyl)-2-methyl-1H-indol-3-yl)-2-(piperidin-1-yl)ethan-1-one] | < 500 nM
